We go through 20 compounds from PubChem BioAssay (NCI).

“And” between values parts separate entries of the source, which are not always exact repeats. Identical values can stand only once.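 Cultured in 96-well plates, cells were exposed to test compound for 48 hours across five concentrations. GI50 marks 50% less growth. Definition used: TGI = concentration required for complete inhibition of growth.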 Bounds are passed on as bounds.

Assay in all cases: NCI tumour cell line growth inhibition, 48 h
Test [1] relates to ACHN renal.
The subject of test [2] is CAKI-1 renal.
The test system of test [3] is EKVX NSCLC.
For test [4], the system named is HCT-15 colon.
The subject of test [5] is IGROV1 ovarian.
Test [6] relates to K-562 leukemia.
The test system of test [7] is MALME-3M melanoma.
The subject of test [8] is MDA-MB-231 breast.
The subject of test [9] is NCI/ADR-RES ovarian.
Test [10] has as its system OVCAR-8 ovarian.
Test [11] concerns PC-3 prostate.
Test [12] has as its system SK-MEL-2 melanoma.
Test [13] concerns U251 CNS.
In test [14] the test system is UACC-62 melanoma.
Test [15] concerns A498 renal.
The test system of test [16] is HCC-2998 colon.
Test [17] deals with SNB-75 CNS.

For `CC(C)CCC[C@@H](C)[C@H]1CCC2C3CC=C4C[C@@H](Oc5c6ccccc6nc6ccccc56)CCC4C3CCC21` (stereo partly drawn), the TGI in test [1], in test [2], in test [3], in [4], in [5] and in [6] was above 50 µM throughout. In addition, the TGI in test [7], in [8], in test [9], in test [10], in test [11] and in test [12] was above 50 µM in each case. Also, the TGI in test [13] and in test [14] was above 50 µM each time.

For the compound `CCOC(=O)Oc1cc2c(c(OC)c1OC)-c1ccc(SC)c(=O)cc1C(NC(=O)C(F)(F)F)CC2` (stereo not drawn), the TGI in test [15] was 0.554 µM; in test [1], 52.8 µM; in [2] it was 0.0928 µM; in test [4] it was above 100 µM; in test [5] it was 0.149 µM; in [6], above 100 µM. Also, the TGI in [11] is above 100 µM; in [12], 51.4 µM; in test [17], above 100 µM; in [13], 0.0148 µM; in [14] it was above 100 µM. The values for the GI50 in [16], in [9] and in test [12] were 0.0146 µM, 0.023 µM and 0.00303 µM, respectively.

Regarding `O=C1O/C(=C(\Br)c2cccc3ccccc23)c2ccccc21`, the TGI is 34.6 µM in [15]; above 55.1 µM in test [1]; above 59.7 µM in test [3]; above 100 µM in test [16]; above 65.6 µM in [4]; above 57.9 µM in test [5]. Besides, the TGI in test [6] is above 68.4 µM; in test [7] it was above 60.6 µM; in [10], above 62.3 µM; in [12], above 61 µM; in test [17], above 87.2 µM; in [13] it was above 100 µM. The TGI in test [14] was above 55.6 µM.

With `O=c1[nH]nc(-c2ccccc2)n1/N=C/c1ccncc1`, the TGI in test [15] is 71.6 µM; in [1] it was above 100 µM; in [2], above 100 µM; in test [3], above 100 µM; in test [16] it was above 100 µM; in [4] it was above 100 µM. Further, the TGI in [5], in test [6], in test [7], in test [9], in test [10] and in [11] was above 100 µM each time. The TGI in [17], in test [13] and in test [14] was above 100 µM in each case.

As to `CCCCCCCCCCCCCCCCCCNc1ccn(C2OC(COP(=O)(O)OCC3CCC(n4cnc5c(=O)[nH]cnc54)O3)C(O)C2O)c(=O)n1` (stereo not drawn), the TGI in test [15], in test [1], in test [2], in [3], in test [4] and in test [5] was above 100 µM in each case. Besides, the TGI in test [7] is above 100 µM; in test [9] it was above 100 µM; in [10], above 100 µM; in test [11], 47.6 µM; in [12], above 100 µM; in [17], above 100 µM. In addition, the TGI in [13] and in test [14] was above 100 µM each time.

For the compound `Cc1ccsc1/C=N/Nc1cc(C)c2cccc(C)c2n1`, the TGI in test [15], in test [1], in test [2], in test [3], in test [16] and in test [5] was above 100 µM each time. Besides, the TGI in test [9], in test [10], in test [11], in [12], in [17] and in [13] was above 100 µM in each case. In test [14], this compound displayed a TGI above 100 µM.

Regarding `O=C1NC(N/N=C\C(O)C(O)C(O)CO)=N/C1=C/c1ccc(Cl)cc1` (stereo not drawn), the TGI was above 100 µM in test [15]; 52.7 µM and 48.1 µM in test [1]; above 100 µM in test [2]; above 100 µM in [3]; 52.8 µM in test [4]; above 100 µM in [5]. Besides, the TGI in [6] is above 100 µM; in test [7] it was 80.2 µM and > 100 µM; in test [8], above 100 µM; in test [9], above 100 µM; in test [10], above 100 µM; in [11] it was above 100 µM. For the same compound, the TGI in test [12], in test [17] and in test [13] was above 100 µM each time.

As for `O=c1/c(=C\c2ccccc2)sc2n1C(c1ccccc1)C1(O)CCCCC1N=2` (stereo not drawn), the TGI in test [15], in test [1], in test [2], in test [16], in [4] and in test [5] was above 100 µM each time. For the same compound, the TGI in test [6], in [7], in test [8], in test [10], in test [11] and in [12] was above 100 µM each time. Moreover, the TGI in [17], in test [13] and in [14] was above 100 µM throughout.

`Cc1ccc(S(=O)(=O)/N=C(\NN)Nc2ccc(Cl)cc2)cc1`: the TGI in test [15], in [1], in test [2], in test [3], in test [4] and in test [5] was above 100 µM in each case. Besides, the TGI in [6], in test [8], in [9], in test [10], in test [11] and in [12] was above 100 µM in each case. The TGI in test [17], in test [13] and in test [14] was above 100 µM each time.

In the case of `COC(=O)c1cc(NC(=O)c2cc(NC(=O)c3cc([N+](=O)[O-])cn3C)cn2C)cn1C`, the TGI in test [15], in test [1], in test [2], in test [3], in [4] and in [6] was above 100 µM throughout. Further, the TGI in [7], in test [8], in [9], in test [10], in test [11] and in [12] was above 100 µM in each case. The TGI in test [17], in [13] and in test [14] was above 100 µM throughout.

Consider `O=C(Nc1nc2c(=O)[nH]cnc2s1)c1ccccc1`, for which the TGI in test [15], in test [1], in test [2], in test [3], in [16] and in test [4] was above 100 µM each time. Besides, the TGI in test [5], in test [6], in test [7], in [9], in test [10] and in [11] was above 100 µM each time. Besides, the TGI in test [12], in [17], in test [13] and in test [14] was above 100 µM in each case.

As to `CN(C(=O)Cc1ccc(Cl)c(Cl)c1)[C@H]1CCCC[C@@H]1[N+]1(C)CCCC1`, the TGI in test [15], in test [1], in [2], in test [3], in test [4] and in [5] was above 100 µM in each case. Moreover, the TGI in [6], in test [7], in [8], in test [9], in [10] and in test [11] was above 100 µM in each case. For the same compound, the TGI in test [12], in [13] and in test [14] was above 100 µM throughout.

`COc1cc2c(c(OC)c1OC)-c1ccc(SC)c(=O)cc1[C@@H](OC(C)=O)CC2`: the TGI in test [1], in [2], in test [3], in test [4], in test [6] and in test [7] was above 100 µM throughout. For the same compound, the TGI is above 100 µM in [8]; above 100 µM in [10]; above 100 µM in [11]; above 82.1 µM in test [17]; above 100 µM in test [13]; above 100 µM in test [14].

Consider `COc1ccc(N2C(=Nc3ccccc3)SC(=N/S(=O)(=O)c3ccccc3)/C2=N\S(=O)(=O)c2ccccc2)cc1`, for which the TGI is 52.4 µM in [15]; 61.1 µM in test [1]; 61.2 µM in test [3]; 42 µM in [16]; 31.8 µM in test [4]; 27.3 µM in test [5]. The TGI in test [6] amounted to 44.1 µM; in test [7], 53.9 µM; in test [8], 43.5 µM; in test [10], 39.6 µM; in test [11], 42.3 µM; in test [17], 55 µM. Moreover, the TGI worked out at 35.4 µM in test [13] and 19.8 µM in test [14].

As to `CCOc1ccc(/C=C(\Cl)c2ccc(OC)c(OC)c2)cc1`, the TGI in test [15], in test [1], in test [3], in [16], in test [4] and in test [5] was above 100 µM in each case. For the same compound, the TGI in test [6], in test [7], in [10], in test [17], in test [13] and in test [14] was above 100 µM in each case.

Regarding `CCCCCC(=O)c1ccc2[nH]c3c(C)cc([N+](=O)[O-])c(C)c3c2c1`, the TGI in [1] was above 100 µM; in test [2], above 100 µM; in test [3] it was above 100 µM; in [16], above 100 µM; in test [4], above 100 µM; in test [6], 92.5 µM. Besides, the TGI in test [7], in test [10], in [12] and in test [17] was above 100 µM in each case.

As to `CN1C(=S)C(c2ccccc2)Sc2ccccc21` (stereo not drawn), the TGI in test [1], in test [2], in test [3], in [4], in test [5] and in test [6] was above 100 µM in each case. The TGI in [7], in test [8], in test [9], in test [10], in test [11] and in test [17] was above 100 µM throughout. In addition, the TGI in [13] and in test [14] was above 100 µM each time.

Consider `C=C1C(=O)OC2(C)C3CCC(C3)C12` (stereo not drawn), for which the TGI in [1] was above 100 µM; in [2] it was 99.4 µM; in [3] it was above 100 µM; in [16], above 100 µM; in test [4], above 100 µM; in test [5] it was above 100 µM. For the same compound, the TGI in test [6], in test [7], in test [10], in [12], in [17] and in test [13] was above 100 µM each time. For the same compound, the TGI in [14] was above 100 µM.

In the case of `Cn1c(C(C#N)c2nc(Cl)ncc2Br)nc2ccccc21` (stereo not drawn), the TGI in test [15], in test [1], in test [2], in [3], in test [4] and in test [5] was above 100 µM in each case. For the same compound, the TGI in test [7], in test [8], in test [9], in [10], in [17] and in test [13] was above 100 µM each time.

Take `Cc1nc2c(n1C(C)(C)C)C(=O)c1ccccc1C2=O`: the TGI in test [1], in test [3], in test [16], in test [4], in test [5] and in test [6] was above 100 µM in each case. In addition, the TGI in test [7], in test [10], in [12], in [17], in [13] and in [14] was above 100 µM throughout.
